{"source": "paper PMC9227536", "about": "“Prediction of Pharmacokinetics of IDP-73152 in Humans Using Physiologically-Based Pharmacokinetics” (Pharmaceutics, 2022)", "key": {"[1]": {"experiment": "Caco-2 cell bidirectional permeability", "assay_type": "in vitro ADME", "conditions": "human; for recovery at 2 h, 10 µM: Caco-2, Caco-2", "experimental": "In this study, bidirectional permeability assays were conducted as described in the literature, with minor modifications. Briefly, Caco-2 cells (KCLB, Seoul, Korea) were seeded on Transwell® inserts (Corning Inc., Glendale, AZ, USA) and grown in a humidified atmosphere of 5% CO2 at 37 °C to form a confluent monolayer over 3 weeks. On day 21, after seeding, the integrity of the cell monolayer was assessed by measuring the transepithelial electrical resistance using an epithelial voltohmmeter (EVOM and EVOMX, World Precision Instruments, Sarasota, FL, USA). The medium in donor and receiver compartments was then replaced with 5 mM of HEPES in HBSS, and preincubated for 10 min at 37 °C. The permeability study was initiated by adding IDP-73152 (in a 10 µM final concentration in the chambers) to an apical insert (for apical-to-basolateral (A-to-B) transport) or a basolateral chamber (for basolateral-to-apical (B-to-A) transport). Samples were collected from both compartments at 30 min intervals up to 2 h. Throughout the study, the temperature and atmosphere of the compartments were maintained at 37 °C and 5% CO2. The samples were stored at −80 °C until analysis and the concentration of the compound was determined by LC-MS/MS assay for IDP-73152 [10]. The apparent permeability coefficient (Papp, in cm/s) was calculated using the following equation:(1) Papp=(dQ/dt/C0×A) where dQ/dt is the rate of IDP-73152 transport across monolayers (nmol/s), C0 is the initial concentration of IDP-73152 (10 μM), and A is the surface area of the insert (1.12 cm^2). The efflux ratio of IDP-73152 in the Caco-2 cell system was calculated by the ratio of Papp from B-to-A transport (Papp,B-to-A) to Papp from A-to-B transport (Papp,A-to-B)."}, "[2]": {"experiment": "Unbound fraction in plasma (rapid equilibrium dialysis), rat", "assay_type": "in vitro ADME", "conditions": "rats plasma, 0.3, 1, 3 μM, RED 5 h, read-out: fu,p", "experimental": "(§1) The unbound fractions of IDP-73152 in various matrices were measured according to the manufacturer’s instructions for the rapid equilibrium dialysis (RED) device (ThermoFisher Scientific, Waltham, MA, USA). Briefly, IDP-73152 was added to the plasma or the microsomal/hepatocyte incubation buffer from various species (i.e., mouse, rat, dog, and human for microsomal incubation; rat for hepatocyte incubation) to obtain final concentrations of the compound at 0.3, 1, and 3 μM. After the membrane insert was placed in the RED plate, the solution containing IDP-73152 was added (400 µL) to the sample chamber, and the dialysis buffer (600 μL) was added to the buffer chamber. The RED plate was sealed with parafilm and then incubated at 37 °C in the orbital shaker (Lab Companion, Daejeon, Korea) at 100 rpm for 5 h. After a 50 μL aliquot was aspirated from both the sample and buffer chambers, an equal volume of protein-free buffer or blank medium was replaced in the aspirated sample or buffer to render the matrices compositionally identical. The IDP-73152 concentration in the buffer/sample chambers (i.e., CBuffer Chamber and CSample Chamber) was determined by an assay. Thus, the fraction unbound was defined as:(2) % Fraction unbound=(CBuffer Chamber/CSample Chamber)×100%"}, "[3]": {"experiment": "Unbound fraction in plasma (rapid equilibrium dialysis), dog", "assay_type": "in vitro ADME", "conditions": "dogs plasma, 0.3, 1, 3 μM, RED 5 h, read-out: fu,p", "experimental": "as §1"}, "[4]": {"experiment": "Stability in plasma, mouse", "assay_type": "in vitro ADME", "conditions": "mice plasma", "experimental": "as §1, with “manufacturer's” for “manufacturer’s”, “μL)” for “µL)”, “After a 50 μL aliquot was aspirated from both the sample and buffer chambers, an equal volume of protein-free buffer or blank medium was replaced in the aspirated sample or buffer to render the matrices compositionally identical.” left out, “Chamber)×100% When necessary, the stability of IDP-73152 in the matrix was also determined at 5 h. […] Accordingly, the kinetics of IDP-73152 instability were determined in the rat blood at a final concentration of 0.3 μM. […]” for “Chamber)×100%”"}, "[5]": {"experiment": "Blood partitioning (LC-MS/MS-based depletion method), rat", "assay_type": "in vitro ADME", "conditions": "whole blood, rats blood, 0.3, 1, 3 μM, read-out: BP (blood-to-plasma concentration ratio)", "experimental": "In this study, the partitioning of IDP-73152 in blood samples obtained from mice, rats, dogs, and humans was determined using the LC-MS/MS-based depletion method with slight modifications. DP-73152 was added to an aliquot (1 mL) of blank blood or plasma at a final concentration of 0.3, 1, or 3 μM. The mixture was incubated at 37 °C in a water bath for 60 min. After the incubation, the plasma was separated by centrifugation of the blood samples for 5 min at 10,000× g/4 °C and stored at -80 °C until analysis. The blood-to-plasma concentration ratio (BP) was calculated using the equation:(3) BP=[…], where […] is the concentration of the compound at the corresponding blood concentration in the plasma, and CPL is the concentration from the plasma sample separated from the incubated blood."}, "[6]": {"design": "method as in PMID 31440032", "conditions": "cited from earlier work; for Observed AUCinf / Observed Cmax: humans, fasting"}}, "note": "Where two headings read alike, the source gives them in different places.", "data": [{"molecule": "CC(C)(C)[C@H](NC(=O)[C@H](CC1CCCC1)CN(O)C=O)C(=O)N1CCC(NCc2cc(F)c(F)cc2F)CC1", "note": "[IDP-73152]", "values": [{"measurement": "recovery at 2 h, 10 µM", "setting": "[1]; read-out: recovery, A to B transport", "value": "96.6 ± 5.1", "unit": "%"}, {"measurement": "recovery at 2 h, 10 µM", "setting": "[1]; read-out: recovery, B to A transport", "value": "93.4 ± 3", "unit": "%"}, {"measurement": "efflux ratio at 2 h, 10 µM", "setting": "[1]; Caco-2, Papp,B-to-A / Papp,A-to-B", "value": "< 2"}, {"measurement": "Papp A→B at 2 h, 10 µM", "setting": "[1]; Caco-2 monolayer, 10 µM, apical-to-basolateral", "value": "31.2 ± 1.93", "unit": "×10⁻⁶ cm/s"}, {"measurement": "Papp B→A at 2 h, 10 µM", "setting": "[1]; Caco-2 monolayer, 10 µM, basolateral-to-apical", "value": "49.5 ± 3.5", "unit": "×10⁻⁶ cm/s"}, {"measurement": "fraction unbound at 5 h", "setting": "[2]", "value": "0.0582 ± 0.005"}, {"measurement": "fraction unbound at 5 h", "setting": "[3]", "value": "0.0547 ± 0.0053"}, {"measurement": "percentage remaining in plasma at 5 h", "setting": "[4]; 5 h, 37 °C", "value": "92.3 ± 2.7", "unit": "%"}, {"measurement": "stability in plasma", "setting": "[4]; preliminary study", "value": "stable"}, {"measurement": "blood plasma ratio at 60 min", "setting": "[5]", "value": "1.56 ± 0.37"}, {"measurement": "adverse effects", "setting": "[6]; human subjects, single oral dose of 40–1280 mg", "value": "without clinically significant adverse effects"}, {"measurement": "Observed AUCinf", "setting": "[6]; single oral 640 mg", "value": "43400 ± 4470", "unit": "ng·h/mL"}, {"measurement": "Observed Cmax", "setting": "[6]; single oral 640 mg", "value": "8920 ± 1170", "unit": "ng/mL"}, {"measurement": "Observed AUCinf", "setting": "[6]; single oral 1280 mg", "value": "77400 ± 15400", "unit": "ng·h/mL"}, {"measurement": "Observed Cmax", "setting": "[6]; single oral 1280 mg", "value": "13200 ± 2500", "unit": "ng/mL"}]}]}
